Results taken from patent publication US8168667B2 (Galapagos NV, priority 2006, dated 2012).
Like-named read-outs stand apart in the source and are kept apart here.

Molecular target: T1, human androgen receptor (hAR) (Homo sapiens, UniProt P10275)
T1 sequence (P10275 1-920): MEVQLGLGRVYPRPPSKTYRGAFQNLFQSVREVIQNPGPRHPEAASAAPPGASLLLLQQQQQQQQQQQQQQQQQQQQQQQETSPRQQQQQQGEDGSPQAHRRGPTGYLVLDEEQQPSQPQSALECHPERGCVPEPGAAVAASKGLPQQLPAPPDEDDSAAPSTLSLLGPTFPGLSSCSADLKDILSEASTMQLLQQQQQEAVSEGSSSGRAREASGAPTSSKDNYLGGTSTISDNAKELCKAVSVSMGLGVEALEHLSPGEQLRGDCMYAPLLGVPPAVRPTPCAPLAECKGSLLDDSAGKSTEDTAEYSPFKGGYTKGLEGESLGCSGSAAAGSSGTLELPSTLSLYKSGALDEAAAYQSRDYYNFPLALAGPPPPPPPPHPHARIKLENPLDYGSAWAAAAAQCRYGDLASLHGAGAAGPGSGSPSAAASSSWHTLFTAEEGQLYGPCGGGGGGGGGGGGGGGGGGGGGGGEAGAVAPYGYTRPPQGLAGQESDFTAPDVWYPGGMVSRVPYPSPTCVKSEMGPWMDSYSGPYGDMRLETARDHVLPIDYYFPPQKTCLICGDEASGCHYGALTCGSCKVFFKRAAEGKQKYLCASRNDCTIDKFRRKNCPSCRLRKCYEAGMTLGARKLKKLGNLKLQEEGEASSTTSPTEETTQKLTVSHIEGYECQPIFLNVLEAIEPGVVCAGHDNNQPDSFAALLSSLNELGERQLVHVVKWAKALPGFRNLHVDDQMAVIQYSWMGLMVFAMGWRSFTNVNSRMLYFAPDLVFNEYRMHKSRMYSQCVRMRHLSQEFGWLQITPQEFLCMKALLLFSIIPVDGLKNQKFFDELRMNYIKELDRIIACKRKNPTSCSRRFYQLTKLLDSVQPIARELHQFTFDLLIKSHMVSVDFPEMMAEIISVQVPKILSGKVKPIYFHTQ
Assay: Functional response test: hAR transactivation (luciferase reporter) in HALP2 cells
Type: cell-based
Conditions: for EC50: agonism, HALP2 cells (HeLa, hAR + ARE-luciferase), 20 hours at 37° C.
Method in brief: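 HALP2 cells are HeLa cells stably transfected with CMV-driven hAR and a probasin ARE-luciferase reporter. They were seeded 24 h ahead, then exposed to compounds for 20 hours at 37° C in phenol red-free DMEM with 5% desteroided serum. Luciferase luminescence was measured after lysis; for antagonist mode, compounds were tested against increasing DHT concentrations.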

[1] = antagonism, concentration which increases the EC50 of the DHT by a factor of 2, Schild regression, HALP2 cells

Row | SMILES | EC50 [nM] | KSchild (nM) potency [1] [nM] | KSchild (nM) potency [nM]
1 | CN(C)CCN1C(=O)N(c2ccc([N+](=O)[O-])c(C(F)(F)F)c2)C(=O)C1c1ccc(O)cc1 (centres unmarked) [Example 114] |  |  | 1095.45
2 | CN(C)CCN1C(=O)N(c2ccc(Cl)c(C(F)(F)F)c2)C(=O)C1c1ccc(O)cc1 (centres unmarked) [Example 117] | 77.5 | 77.46 | 
3 | N#CCCN1C(=O)N(c2ccc(C#N)c(C(F)(F)F)c2)C(=O)C1c1ccc(O)cc1 (centres unmarked) [Example 121] |  |  | 17.32
4 | N#CCCN1C(=O)N(c2ccc([N+](=O)[O-])c(C(F)(F)F)c2)C(=O)C1c1ccc(O)cc1 (centres unmarked) [Example 122] |  |  | 244.95
5 | N#CCCN1C(=O)N(c2ccc(Cl)c(C(F)(F)F)c2)C(=O)C1c1ccc(O)cc1 (centres unmarked) [Example 125] |  |  | 30
6 | N#CCCN1C(=O)N(c2cccc(C(F)(F)F)c2)C(=O)C1c1ccc(O)cc1 (centres unmarked) [Example 128] | 245 | 244.95 | 
7 | N#CCCN1C(=O)N(c2ccc([N+](=O)[O-])cc2)C(=O)C1c1ccc(O)cc1 (centres unmarked) [Example 129] |  |  | 34.64
8 | O=C1C(c2ccc(O)cc2)N(CCCCO)C(=O)N1c1ccc([N+](=O)[O-])c(C(F)(F)F)c1 (centres unmarked) [Example 131] |  |  | 600
9 | O=C1C(c2ccc(O)cc2)N(CCCCO)C(=O)N1c1ccc(F)c(C(F)(F)F)c1 (centres unmarked) [Example 135] |  |  | 600
10 | N#Cc1ccc(N2C(=O)C(c3ccc(O)cc3)N(CCO)C2=O)cc1C(F)(F)F (centres unmarked) [Example 137] |  |  | 24.49

Further lines, with some results ahead:

Row | EC50 [nM] | KSchild (nM) potency [1] [nM] | SMILES | KSchild (nM) potency [nM]
11 | 141 | 141.42 | CN(C)CCN1C(=O)N(c2ccc(Cl)c(Cl)c2)C(=O)C1c1ccc(O)cc1 (centres unmarked) [Example 115] | 
12 | 2000 | 2000 | CN(C)CCN1C(=O)N(c2ccc(F)c(F)c2)C(=O)C1c1ccc(O)cc1 (centres unmarked) [Example 116] | 
13 | 245 | 244.95 | CN(C)CCN1C(=O)N(c2ccc(F)c(C(F)(F)F)c2)C(=O)C1c1ccc(O)cc1 (centres unmarked) [Example 118] | 
14 | 283 | 282.84 | CN(C)CCN1C(=O)N(c2ccc(F)c(Cl)c2)C(=O)C1c1ccc(O)cc1 (centres unmarked) [Example 119] | 
15 | 424 | 424.26 | CN(C)CCN1C(=O)N(c2cccc(C(F)(F)F)c2)C(=O)C1c1ccc(O)cc1 (centres unmarked) [Example 120] | 
16 | 42.4 | 30 | N#CCCN1C(=O)N(c2ccc(Cl)c(Cl)c2)C(=O)C1c1ccc(O)cc1 (centres unmarked) [Example 123] | 
17 | 89.4 | 89.44 | N#CCCN1C(=O)N(c2ccc(F)c(F)c2)C(=O)C1c1ccc(O)cc1 (centres unmarked) [Example 124] | 
18 | 212 | 212.13 | N#CCCN1C(=O)N(c2ccc(F)c(C(F)(F)F)c2)C(=O)C1c1ccc(O)cc1 (centres unmarked) [Example 126] | 
19 | 245 | 212.13 | N#CCCN1C(=O)N(c2ccc(F)c(Cl)c2)C(=O)C1c1ccc(O)cc1 (centres unmarked) [Example 127] | 
20 | 69.3 | 69.28 | O=C1C(c2ccc(O)cc2)N(CCCCO)C(=O)N1c1ccc(Cl)c(Cl)c1 (centres unmarked) [Example 132] | 
21 | 600 | 600 | O=C1C(c2ccc(O)cc2)N(CCCCO)C(=O)N1c1ccc(F)c(F)c1 (centres unmarked) [Example 133] | 
22 | 122 | 122.47 | O=C1C(c2ccc(O)cc2)N(CCCCO)C(=O)N1c1ccc(Cl)c(C(F)(F)F)c1 (centres unmarked) [Example 134] | 
23 | 600 | 600 | O=C1C(c2ccc(O)cc2)N(CCCCO)C(=O)N1c1cccc(C(F)(F)F)c1 (centres unmarked) [Example 136] | 
